Experimental data as given in patent publication US20250163104A1, “MACROCYCLIC IMMUNOMODULATORS” (priority 2021, published 2025).
Where a SMILES comes first, the peptide text is derived from it. Bridges are numbered along the chain shown (N, C = ends). [ ]: non-standard residue; d: D form. The star is where a group is joined. Phe(4-COOH) = N[C@@H](Cc1ccc(C(=O)O)cc1)C(=O)O; Bip = N[C@@H](Cc1ccc(-c2ccccc2)cc1)C(=O)O; 4Pal = N[C@@H](Cc1ccncc1)C(=O)O; Cha = N[C@@H](CC1CCCCC1)C(=O)O; Carboxymethyl = O=C(O)C*; Nle = CCCC[C@H](N)C(=O)O; Orn = NCCC[C@H](N)C(=O)O; Dab = NCC[C@H](N)C(=O)O; Dap = NC[C@H](N)C(=O)O

biological target: T1, human PD-1 / PD-L1-Ig binding on Jurkat cell line over-expressing human PD-1 (Jurkat-PD-1) (Homo sapiens, UniProt Q15116); test: Jurkat-PD-1 Cell Binding High-Content Screening Assay (CBA); assay type: cell-based; conditions: Jurkat-PD-1 cells, PE-labeled PD-L1-Ig 20 nM final; read-out: Jurkat HPD1_PDL1 IC50
T1 construct: expressed in transfected cells; host or cells: Jurkat
Outline: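 Read-out: high-content imaging of PE-tagged PD-L1-Ig bound to Jurkat cells overexpressing human PD-1, after fixation with 4% paraformaldehyde and Hoechst 33342 nuclear staining. Ligand was used at 20 nM final for 1 hour, after a 2 h compound exposure at 37° C in serum-containing DMEM.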

T1 sequence (Q15116 25-288): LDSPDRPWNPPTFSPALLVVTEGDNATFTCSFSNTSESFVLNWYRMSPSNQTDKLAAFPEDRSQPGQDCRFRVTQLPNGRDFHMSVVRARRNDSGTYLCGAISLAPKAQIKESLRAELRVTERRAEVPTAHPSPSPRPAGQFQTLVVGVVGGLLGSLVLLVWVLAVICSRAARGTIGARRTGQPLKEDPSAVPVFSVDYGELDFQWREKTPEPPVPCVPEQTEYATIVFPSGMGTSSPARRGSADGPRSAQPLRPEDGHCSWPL

Compound	IC50
CCCC[C@@H]1NC(=O)[C@H](CC(N)=O)NC(=O)[C@@H](CC(C)C)NC(=O)[C@H](CN)NC(=O)[C@H](C(C)C)NC(=O)[C@H](Cc2ccc(-c3ccccc3)cc2)NC(=O)[C@H](CC(C)C)NC(=O)[C@H](Cc2c[nH]c3ccccc23)NC(=O)[C@H](CC(=O)O)NC(=O)[C@H](Cc2ccncc2)NC(=O)[C@H](Cc2ccc(OCC(=O)O)cc2)NC(=O)CSC[C@@H](C(=O)NCC(N)=O)NC(=O)[C@H](CO)NC(=O)[C@H](C(C)C)NC1=O [Compound 1401] ({CH2CO}-Y(Carboxymethyl)[4Pal]DWL[Bip]V[Dap][dL]N[Nle]VSCG-NH2; thioether N-14)	22 nM
CC(C)C[C@@H]1NC(=O)[C@H](Cc2c[nH]c3ccccc23)NC(=O)[C@H](CC(=O)O)NC(=O)[C@H](Cc2ccc(OCC(=O)O)cc2)NC(=O)[C@H](Cc2ccncc2)NC(=O)CSC[C@@H](C(=O)NCC(N)=O)NC(=O)[C@H](CO)NC(=O)[C@H](C(C)C)NC(=O)[C@H](CC2CCCCC2)NC(=O)[C@H](CCN)NC(=O)[C@@H](CC(C)C)NC(=O)[C@H](CCCN)NC(=O)[C@H](C(C)C)NC(=O)[C@H](Cc2ccc(-c3ccccc3)cc2)NC1=O [Compound 1402] ({CH2CO}-[4Pal]Y(Carboxymethyl)DWL[Bip]V[Orn][dL][Dab][Cha]VSCG-NH2; thioether N-14)	9.9 nM
CC(C)C[C@@H]1NC(=O)[C@H](Cc2c[nH]c3ccccc23)NC(=O)[C@H](CC(=O)O)NC(=O)[C@H](Cc2ccc(OCC(=O)O)cc2)NC(=O)[C@H](CN)NC(=O)CSC[C@@H](C(=O)NCC(N)=O)NC(=O)[C@H](CO)NC(=O)[C@H](C(C)C)NC(=O)[C@H](CC2CCCCC2)NC(=O)[C@H](CCN)NC(=O)[C@@H](CC(C)C)NC(=O)[C@H](CCCN)NC(=O)[C@H](C(C)C)NC(=O)[C@H](Cc2ccc(-c3ccccc3)cc2)NC1=O [Compound 1403] ({CH2CO}-[Dap]Y(Carboxymethyl)DWL[Bip]V[Orn][dL][Dab][Cha]VSCG-NH2; thioether N-14)	5.9 nM
CC(C)C[C@@H]1NC(=O)[C@H](Cc2c[nH]c3ccccc23)NC(=O)[C@H](CC(=O)O)NC(=O)[C@H](Cc2ccc(OCC(=O)O)cc2)NC(=O)[C@H](Cc2ccc(OCC(=O)O)cc2)NC(=O)CSC[C@@H](C(=O)NCC(N)=O)NC(=O)[C@H](CO)NC(=O)[C@H](C(C)C)NC(=O)[C@H](CC2CCCCC2)NC(=O)[C@H](CCN)NC(=O)[C@@H](CC(C)C)NC(=O)[C@H](CCCN)NC(=O)[C@H](C(C)C)NC(=O)[C@H](Cc2ccc(-c3ccccc3)cc2)NC1=O [Compound 1404] ({CH2CO}-Y(Carboxymethyl)Y(Carboxymethyl)DWL[Bip]V[Orn][dL][Dab][Cha]VSCG-NH2; thioether N-14)	5.1 nM
CC(C)C[C@@H]1NC(=O)[C@H](Cc2c[nH]c3ccccc23)NC(=O)[C@H](CC(=O)O)NC(=O)[C@H](Cc2ccc(C(=O)O)cc2)NC(=O)[C@H](Cc2ccc(OCC(=O)O)cc2)NC(=O)CSC[C@@H](C(=O)NCC(N)=O)NC(=O)[C@H](CO)NC(=O)[C@H](C(C)C)NC(=O)[C@H](CC2CCCCC2)NC(=O)[C@H](CCN)NC(=O)[C@@H](CC(C)C)NC(=O)[C@H](CCCN)NC(=O)[C@H](C(C)C)NC(=O)[C@H](Cc2ccc(-c3ccccc3)cc2)NC1=O [Compound 1405] ({CH2CO}-Y(Carboxymethyl)[Phe(4-COOH)]DWL[Bip]V[Orn][dL][Dab][Cha]VSCG-NH2; thioether N-14)	7.4 nM
CC(C)C[C@@H]1NC(=O)[C@H](Cc2c[nH]c3ccccc23)NC(=O)[C@H](CC(=O)O)NC(=O)[C@H](Cc2ccncc2)NC(=O)[C@H](Cc2ccc(OCC(=O)O)cc2)NC(=O)CSC[C@@H](C(=O)NCC(N)=O)NC(=O)[C@H](CO)NC(=O)[C@H](C(C)C)NC(=O)[C@H](CC2CCCCC2)NC(=O)[C@H](CCN)NC(=O)[C@@H](CC(C)C)NC(=O)[C@H](CCCN)NC(=O)[C@H](C(C)C)NC(=O)[C@H](Cc2ccc(-c3ccccc3)cc2)NC1=O [Compound 1406] ({CH2CO}-Y(Carboxymethyl)[4Pal]DWL[Bip]V[Orn][dL][Dab][Cha]VSCG-NH2; thioether N-14)	15.9 nM
CCCC[C@@H]1NC(=O)[C@H](CCN)NC(=O)[C@@H](CC(C)C)NC(=O)[C@H](CCCN)NC(=O)[C@H](C(C)C)NC(=O)[C@H](Cc2ccc(-c3ccccc3)cc2)NC(=O)[C@H](CC(C)C)NC(=O)[C@H](Cc2c[nH]c3ccccc23)NC(=O)[C@H](CC(=O)O)NC(=O)[C@H](Cc2ccc(OCC(=O)O)cc2)NC(=O)[C@H](Cc2ccncc2)NC(=O)CSC[C@@H](C(=O)NCC(N)=O)NC(=O)[C@H](CO)NC(=O)[C@H](C(C)C)NC1=O [Compound 1407] ({CH2CO}-[4Pal]Y(Carboxymethyl)DWL[Bip]V[Orn][dL][Dab][Nle]VSCG-NH2; thioether N-14)	7.9 nM
CCCC[C@@H]1NC(=O)[C@H](CCN)NC(=O)[C@@H](CC(C)C)NC(=O)[C@H](CCCN)NC(=O)[C@H](C(C)C)NC(=O)[C@H](Cc2ccc(-c3ccccc3)cc2)NC(=O)[C@H](CC(C)C)NC(=O)[C@H](Cc2c[nH]c3ccccc23)NC(=O)[C@H](CC(=O)O)NC(=O)[C@H](Cc2ccc(OCC(=O)O)cc2)NC(=O)[C@H](CN)NC(=O)CSC[C@@H](C(=O)NCC(N)=O)NC(=O)[C@H](CO)NC(=O)[C@H](C(C)C)NC1=O [Compound 1408] ({CH2CO}-[Dap]Y(Carboxymethyl)DWL[Bip]V[Orn][dL][Dab][Nle]VSCG-NH2; thioether N-14)	8.2 nM
CCCC[C@@H]1NC(=O)[C@H](CCN)NC(=O)[C@@H](CC(C)C)NC(=O)[C@H](CCCN)NC(=O)[C@H](C(C)C)NC(=O)[C@H](Cc2ccc(-c3ccccc3)cc2)NC(=O)[C@H](CC(C)C)NC(=O)[C@H](Cc2c[nH]c3ccccc23)NC(=O)[C@H](CC(=O)O)NC(=O)[C@H](Cc2ccc(OCC(=O)O)cc2)NC(=O)[C@H](Cc2ccc(OCC(=O)O)cc2)NC(=O)CSC[C@@H](C(=O)NCC(N)=O)NC(=O)[C@H](CO)NC(=O)[C@H](C(C)C)NC1=O [Compound 1409] ({CH2CO}-Y(Carboxymethyl)Y(Carboxymethyl)DWL[Bip]V[Orn][dL][Dab][Nle]VSCG-NH2; thioether N-14)	16.8 nM
CCCC[C@@H]1NC(=O)[C@H](CCN)NC(=O)[C@@H](CC(C)C)NC(=O)[C@H](CCCN)NC(=O)[C@H](C(C)C)NC(=O)[C@H](Cc2ccc(-c3ccccc3)cc2)NC(=O)[C@H](CC(C)C)NC(=O)[C@H](Cc2c[nH]c3ccccc23)NC(=O)[C@H](CC(=O)O)NC(=O)[C@H](Cc2ccc(C(=O)O)cc2)NC(=O)[C@H](Cc2ccc(OCC(=O)O)cc2)NC(=O)CSC[C@@H](C(=O)NCC(N)=O)NC(=O)[C@H](CO)NC(=O)[C@H](C(C)C)NC1=O [Compound 1410] ({CH2CO}-Y(Carboxymethyl)[Phe(4-COOH)]DWL[Bip]V[Orn][dL][Dab][Nle]VSCG-NH2; thioether N-14)	7.3 nM
CCCC[C@@H]1NC(=O)[C@H](CCN)NC(=O)[C@@H](CC(C)C)NC(=O)[C@H](CCCN)NC(=O)[C@H](C(C)C)NC(=O)[C@H](Cc2ccc(-c3ccccc3)cc2)NC(=O)[C@H](CC(C)C)NC(=O)[C@H](Cc2c[nH]c3ccccc23)NC(=O)[C@H](CC(=O)O)NC(=O)[C@H](Cc2ccncc2)NC(=O)[C@H](Cc2ccc(OCC(=O)O)cc2)NC(=O)CSC[C@@H](C(=O)NCC(N)=O)NC(=O)[C@H](CO)NC(=O)[C@H](C(C)C)NC1=O [Compound 1411] ({CH2CO}-Y(Carboxymethyl)[4Pal]DWL[Bip]V[Orn][dL][Dab][Nle]VSCG-NH2; thioether N-14)	9.5 nM
